From patent US8026070B2 (priority 2005, dated 2011)
Several values for one entry are separate records, joined by “and”; a condition that tells them apart may be missing. Identical values can stand only once. Like-named read-outs stand apart in the source and are kept apart here.

System: human recombinant PrP spiked into human plasma

SMILES: NCCCCCC(=O)O [ACA, 6-aminohexanoic acid]
- Effect on detection of spiked human recombinant prion protein in human plasma: enhanced the detection
- Non-specific binding, optical density at 450 nm: 0.4665 and 0.4128 and 0.4549
- Only Plasma, optical density at 450 nm: 0.4036 and 0.4098 and 0.3737
- Plasma with human recombinant PrP, optical density at 450 nm: 0.52 and 0.5723 and 0.6507
- Ratio of Signals (ratio of signals from spiked plasma and only plasma samples): 1.3 and 1.4 and 1.7

SMILES: NC[C@H]1CC[C@H](C(=O)O)CC1 [AMCHA, trans-(aminomethyl)cyclohexanecarboxylic acid]
- Ratio of Signals (ratio of signals from spiked plasma and only plasma samples): 1.7 and 1.6 and 1.8
- Effect on detection of spiked human recombinant prion protein in human plasma (all concentrations (1, 10, 100 mM) in the sample preparation buffer): enhanced the detection
